Measurements taken from patent US10327446B2, “Naphthyl- or isoquinolinyl-substituted isothiazoline compounds” (BOEHRINGER INGELHEIM ANIMAL HEALTH USA INC., priority 2013, dated 2019).

Legend:
[1] = system: Tobacco Budworm (Heliothis virescens); assay: Tobacco budworm microtiter plate diet test; assay type: in vivo; details: 120 h, sprayed onto insect diet with eggs, egg and larval mortality after 5 days, read-out: mortality in comparison with untreated controls
Experimental: B.5 Tobacco Budworm (Heliothis virescens)
For evaluating control of tobacco budworm (Heliothis virescens) the test unit consisted of 96-well-microtiter plates containing an insect diet and 15-25 H. virescens eggs. The compounds were formulated using a solution containing 75% v/v water and 25% v/v DMSO. Different concentrations of formulated compounds were sprayed onto the insect diet at 10 μl, using a custom built micro atomizer, at two replications.
After application, microtiter plates were incubated at about 28±1° C. and about 80±5% relative humidity for 5 days. Egg and larval mortality was then visually assessed.

[2] = system: Diamond Back Moth (Plutella xylostella); assay: Diamond back moth leaf-dip test; assay type: in vivo; details: cabbage leaves dipped, 3rd instar larvae, 72 hours after treatment, read-out: mortality in comparison with untreated controls
Experimental: B.1 Diamond Back Moth (Plutella xylostella)
The active compound was dissolved at the desired concentration in a mixture of 1:1 (vol:vol) distilled water:aceteone. Surfactant (Kinetic HV) was added at a rate of 0.01% (vol/vol). The test solution was prepared at the day of use.
Leaves of cabbage were dipped in test solution and air-dried. Treated leaves were placed in petri dishes lined with moist filter paper and inoculated with ten 3rd instar larvae. Mortality was recorded 72 hours after treatment. Feeding damages were also recorded using a scale of 0-100%.

[3] = system: Green Peach Aphid (Myzus persicae); assay: Green peach aphid systemic test on artificial diet in microtiter plates; assay type: in vivo; details: 72 h, adult aphids on treated artificial diet, 3 days, read-out: mortality in comparison with untreated controls
Description: B.2 Green Peach Aphid (Myzus persicae)
For evaluating control of green peach aphid (Myzus persicae) through systemic means the test unit consisted of 96-well-microtiter plates containing liquid artificial diet under an artificial membrane.
The compounds were formulated using a solution containing 75% v/v water and 25% v/v DMSO. Different concentrations of formulated compounds were pipetted into the aphid diet, using a custom built pipetter, at two replications.
After application, 5-8 adult aphids were placed on the artificial membrane inside the microtiter plate wells. The aphids were then allowed to suck on the treated aphid diet and incubated at about 23±1° C. and about 50±5% relative humidity for 3 days. Aphid mortality and fecundity was then visually assessed.

[4] = system: Boll Weevil (Anthonomus grandis); assay: Boll weevil microtiter plate diet test; assay type: in vivo; details: 120 h, sprayed onto insect diet with eggs, egg and larval mortality after 5 days, read-out: mortality in comparison with untreated controls
Experimental: B.6 Boll Weevil (Anthonomus grandis)
For evaluating control of boll weevil (Anthonomus grandis) the test unit consisted of 96-well-microtiter plates containing an insect diet and 5-10 A. grandis eggs.
The compounds were formulated using a solution containing 75% v/v water and 25% v/v DMSO. Different concentrations of formulated compounds were sprayed onto the insect diet at 5 μl, using a custom built micro atomizer, at two replications.
After application, microtiter plates were incubated at about 25±1° C. and about 75±5% relative humidity for 5 days. Egg and larval mortality was then visually assessed.

[5] = system: Mediterranean Fruitfly (Ceratitis capitata); assay: Mediterranean fruitfly microtiter plate diet test; details: 120 h, read-out: mortality in comparison with untreated controls
[6] = system: Orchid Thrips (Dichromothrips Corbetti); assay: Orchid thrips floral-immersion test; assay type: in vivo; details: orchid petals dipped, adult thrips, 72 hours after treatment, read-out: mortality in comparison with untreated controls
Experimental: B.7 Orchid Thrips (Dichromothrips Corbetti)
Dichromothrips corbetti adults used for bioassay were obtained from a colony maintained continuously under laboratory conditions. For testing purposes, the test compound is diluted in a 1:1 mixture of acetone:water (vol:vol), plus Kinetic HV at a rate of 0.01% v/v.
Thrips potency of each compound was evaluated by using a floral-immersion technique. All petals of individual, intact orchid flowers were dipped into treatment solution and allowed to dry in Petri dishes. Treated petals were placed into individual resealable plastic along with about 20 adult thrips. All test arenas were held under continuous light and a temperature of about 28° C. for duration of the assay. After 3 days, the numbers of live thrips were counted on each petal. The percent mortality was recorded 72 hours after treatment.

[7] = system: Vetch Aphid (Megoura viciae); assay: Vetch aphid broad bean leaf disk test; assay type: in vivo; details: foliar, 120 h, sprayed onto broad bean leaf disks, adult aphids, 5 days, read-out: mortality in comparison with untreated controls
Experimental: B.4 Vetch Aphid (Megoura viciae)
For evaluating control of vetch aphid (Megoura viciae) through contact or systemic means the test unit consisted of 24-well-microtiter plates containing broad bean leaf disks.
The compounds were formulated using a solution containing 75% v/v water and 25% v/v DMSO. Different concentrations of formulated compounds were sprayed onto the leaf disks at 2.5 μl, using a custom built micro atomizer, at two replications.
After application, the leaf disks were air-dried and 5-8 adult aphids placed on the leaf disks inside the microtiter plate wells. The aphids were then allowed to suck on the treated leaf disks and incubated at about 23±1° C. and about 50±5% relative humidity for 5 days. Aphid mortality and fecundity was then visually assessed.

O=C(NCC(F)(F)F)N/N=C/c1ccc(C2=NSC(c3cc(Cl)c(Cl)c(Cl)c3)(C(F)(F)F)C2)c2ccccc12 (stereo not drawn) [Compound 1-1, 1-[(E)-[4-[5-(3,4,5-trichlorophenyl)-5-(trifluoromethyl)-4H-isothiazol-3-yl]-1-naphthyl]methyleneamino]-3-(2,2,2-trifluoroethyl)urea]
≥ 75%: mortality at 2500 ppm [1] | mortality at 500 ppm [2] | mortality at 2500 ppm [3] | mortality at 2500 ppm [4] | mortality at 2500 ppm [5]

O=C(NCC1CC(F)(F)C1)c1ccc(C2=NSC(c3cc(Cl)c(Cl)c(Cl)c3)(C(F)(F)F)C2)c2ccccc12 (stereo not drawn) [Compound 2-1, N-[(3,3-difluorocyclobutyl)methyl]-4-[5-(3,4,5-trichlorophenyl)-5-(trifluoromethyl)-4H-isothiazol-3-yl]naphthalene-1-carboxamide]
≥ 75%: mortality at 2500 ppm [1] | mortality at 500 ppm [2] | mortality at 500 ppm [6] | mortality at 2500 ppm [3] | mortality at 2500 ppm [4] | mortality at 2500 ppm [5] | mortality at 2500 ppm [7]
